#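 Step 1: Grow cells in 96-well plates. Step 2: Expose to compound for 48 hours at 5 concentrations. Step 3: Interpolate endpoints linearly; if unreached, use highest concentration. GI50: concentration for 50% inhibition of growth. TGI marks complete inhibition of growth.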
# What was measured:
# Assay in all cases: DTP human tumour cell line panel, 48 h
# [1] = system: UACC-257 melanoma
# [2] = system: SR leukemia
# [3] = system: HS 578T breast
# [4] = system: A549 NSCLC
# [5] = system: NCI-H460 lung
# [6] = system: UO-31 renal
# [7] = system: OVCAR-4 ovarian
# [8] = system: NCI-H23 lung
# [9] = system: SF-539 CNS
# [10] = system: BT-549 breast
# [11] = system: DU-145 prostate
# [12] = system: A498 renal
# [13] = system: RXF 393 renal
# [14] = system: K-562 leukemia
# [15] = system: MDA-MB-435
# [16] = system: MOLT-4 leukemia
# [17] = system: SNB-75 CNS
# [18] = system: ACHN renal
# [19] = system: KM12 colon
# [20] = system: SK-OV-3 ovarian
# [21] = system: MDA-MB-231 breast
# [22] = system: CCRF-CEM leukemia
# [23] = system: SK-MEL-28 melanoma
# [24] = system: MDA-MB-468 breast
# [25] = system: RPMI-8226 leukemia
# [26] = system: NCI-H522 lung
# [27] = system: MALME-3M melanoma
# [28] = system: OVCAR-3 ovarian
# [29] = system: IGROV1 ovarian
# [30] = system: HCC-2998 colon
# [31] = system: HOP-92 NSCLC
# [32] = system: CAKI-1 renal
# [33] = system: SF-295 CNS
# [34] = system: TK-10 renal
# [35] = system: 786-0 renal
# [36] = system: OVCAR-5 ovarian
# [37] = system: HCT-116 colon
# [38] = system: COLO 205 colon
# [39] = system: EKVX NSCLC
# [40] = system: M14 melanoma
# [41] = system: HCT-15 colon
# [42] = system: PC-3 prostate
# [43] = system: SK-MEL-5 melanoma
# [44] = system: NCI/ADR-RES ovarian
# [45] = system: SW-620 colon
# [46] = system: UACC-62 melanoma
# [47] = system: SK-MEL-2 melanoma
# [48] = system: NCI-H226 lung
# [49] = system: HOP-62 NSCLC
# [50] = system: T-47D breast
# [51] = system: SF-268 CNS
# [52] = system: OVCAR-8 ovarian
# [53] = system: HT29 colon
# [54] = system: SN12C renal
# [55] = system: LOX IMVI melanoma
# [56] = system: HL-60(TB) leukemia
# [57] = system: U251 CNS
# [58] = system: SNB-19 CNS
# [59] = system: MCF7 breast
smiles,measurement,setting,value
O=C(CSc1nnc(-c2ccc(-c3nc4ccccc4[nH]3)cc2)o1)Nc1ccc(Br)cc1,GI50,[1],4.76 µM
same,TGI,[1],20.5 µM
same,GI50,[2],4.57 µM
same,TGI,[2],40.1 µM
same,GI50,[3],3.39 µM
same,TGI,[3],16.3 µM
same,GI50,[4],2.4 µM
same,TGI,[4],6.24 µM
same,GI50,[5],1.95 µM
same,TGI,[5],4.54 µM
same,GI50,[6],5.91 µM
same,TGI,[6],18.9 µM
same,GI50,[7],3.23 µM
same,TGI,[7],12.3 µM
same,GI50,[8],3.22 µM
same,TGI,[8],12.4 µM
same,GI50,[9],2 µM
same,TGI,[9],4.7 µM
same,GI50,[10],3.03 µM
same,TGI,[10],7.93 µM
same,GI50,[11],3.2 µM
same,TGI,[11],10.8 µM
same,GI50,[12],19 µM
same,TGI,[12],35.3 µM
same,GI50,[13],2.26 µM
same,TGI,[13],5.82 µM
same,GI50,[14],3.01 µM
same,TGI,[14],> 100 µM
same,GI50,[15],2.11 µM
same,TGI,[15],7.73 µM
same,GI50,[16],3.26 µM
same,TGI,[16],18 µM
same,GI50,[17],2 µM
same,TGI,[17],7.51 µM
same,GI50,[18],3.55 µM
same,TGI,[18],12.8 µM
same,GI50,[19],3.98 µM
same,TGI,[19],18.6 µM
same,GI50,[20],12.1 µM
same,TGI,[20],34.9 µM
same,GI50,[21],4.38 µM
same,TGI,[21],15.1 µM
same,GI50,[22],3.41 µM
same,TGI,[22],15.8 µM
same,GI50,[23],2.62 µM
same,TGI,[23],7.91 µM
same,GI50,[24],6.47 µM
same,TGI,[24],20.7 µM
same,GI50,[25],3.24 µM
same,TGI,[25],36.1 µM
same,GI50,[26],2.74 µM
same,TGI,[26],14.6 µM
same,GI50,[27],2.37 µM
same,TGI,[27],6.33 µM
same,GI50,[28],2.74 µM
same,TGI,[28],8.95 µM
same,GI50,[29],10.3 µM
same,TGI,[29],22.6 µM
same,GI50,[30],12.9 µM
same,TGI,[30],31.2 µM
same,GI50,[31],3.24 µM
same,TGI,[31],11.5 µM
same,GI50,[32],2.03 µM
same,TGI,[32],4.83 µM
same,GI50,[33],2.31 µM
same,TGI,[33],5.97 µM
same,GI50,[34],14.8 µM
same,TGI,[34],29.6 µM
same,GI50,[35],2.17 µM
same,TGI,[35],4.29 µM
same,GI50,[36],6.53 µM
same,TGI,[36],20.4 µM
same,GI50,[37],3.43 µM
same,TGI,[37],13.7 µM
same,GI50,[38],10.6 µM
same,TGI,[38],30.5 µM
same,GI50,[39],4.2 µM
same,TGI,[39],16.3 µM
same,GI50,[40],3.82 µM
same,TGI,[40],17.8 µM
same,GI50,[41],3.66 µM
same,TGI,[41],15.1 µM
same,GI50,[42],2.57 µM
same,TGI,[42],8.99 µM
same,GI50,[43],4.8 µM
same,TGI,[43],17.3 µM
same,GI50,[44],5.14 µM
same,TGI,[44],19.1 µM
same,GI50,[45],3.1 µM
same,TGI,[45],11.6 µM
same,GI50,[46],4.13 µM
same,TGI,[46],15.5 µM
same,GI50,[47],12.2 µM
same,TGI,[47],26.4 µM
same,GI50,[48],2.63 µM
same,TGI,[48],9.59 µM
same,GI50,[49],2.88 µM
same,TGI,[49],8.21 µM
same,GI50,[50],3.81 µM
same,TGI,[50],20.2 µM
same,GI50,[51],2.44 µM
same,TGI,[51],6.61 µM
same,GI50,[52],4.11 µM
same,TGI,[52],15.6 µM
same,GI50,[53],2.87 µM
same,TGI,[53],12.8 µM
same,GI50,[54],3.4 µM
same,TGI,[54],12.7 µM
same,GI50,[55],1.73 µM
same,TGI,[55],3.48 µM
same,GI50,[56],6.37 µM
same,TGI,[56],33.1 µM
same,GI50,[57],6.78 µM
same,TGI,[57],20.3 µM
same,GI50,[58],5.36 µM
same,TGI,[58],18 µM
same,GI50,[59],2.88 µM
same,TGI,[59],12.5 µM

# Reference: PubChem BioAssay (NCI)
